Earlier results on 2 compounds are cited in patent publication US6576633B1, “Stable liquid antimicrobial suspension compositions containing quarternaries prepared from hexamethylenetetramine and certain halohydrocarbons” (The Dow Chemical Company, priority 1996, dated 2003).

The conditions of this data set: conventional 30 percent aqueous solution; within one month.

With `ClC=CC[N+]12CN3CN(CN(C3)C1)C2.[Cl-]` (mixture of isomers) [cis/trans-compound, 1-(3-chloroallyl)-3,5,7-triaza-1-azoniaadamantane chloride], the chemical degradation was ~30%. For the compound `ClC=CC[N+]12CN3CN(CN(C3)C1)C2.[Cl-]` [cis-compound, 1-(3-chloroallyl)-3,5,7-triaza-1-azoniaadamantane chloride], the chemical degradation is ~30%.
